The text below walks through data of patent EP4778920A1, “INDAZOLONE COMPOUND, PREPARATION METHOD THEREFOR, PHARMACEUTICAL COMPOSITION, AND USE” (Shanghai Institute of Materia Medica, Chinese Academy of …, priority 2023, dated 2025).

Each structure is given as a SMILES string. Where only a bound is given, the exact number is not on record here.

In one test the target is CRBN/DDB1 (Homo sapiens, UniProt Q96SW2). In words: CRBN/DDB1 binding TR-FRET assay. Conditions: read-out: AVE_Inhibition% (1 µM). As for the experimental part: • 1. 0.1 µL of the reference solution was added to a 384-well assay plate. The final detection concentration was 100 µM, followed by 3-fold serial dilution for 10 points. • 2. 2.5 µL of CRBN/DDB1 was added to the 384-well plate and centrifuged at 1000 rpm for 1 minute. • 3. 2.5 µL of Thalidomide-BODIPY was added to the plate, centrifuged at 1000 rpm for 1 minute, and incubated at 25 °C for 15 minutes. • 4. 5 µL of His-Tb was added to the plate, centrifuged at 1000 rpm for 1 minute, and incubated at 25 °C for 60 minutes. • 5. The TR-FRET signal was measured using a BMG plate reader with a fluorescence ratio of 520/490 nm.
CRBN/DDB1, sequence (Q96SW2 whole entry, species assumed): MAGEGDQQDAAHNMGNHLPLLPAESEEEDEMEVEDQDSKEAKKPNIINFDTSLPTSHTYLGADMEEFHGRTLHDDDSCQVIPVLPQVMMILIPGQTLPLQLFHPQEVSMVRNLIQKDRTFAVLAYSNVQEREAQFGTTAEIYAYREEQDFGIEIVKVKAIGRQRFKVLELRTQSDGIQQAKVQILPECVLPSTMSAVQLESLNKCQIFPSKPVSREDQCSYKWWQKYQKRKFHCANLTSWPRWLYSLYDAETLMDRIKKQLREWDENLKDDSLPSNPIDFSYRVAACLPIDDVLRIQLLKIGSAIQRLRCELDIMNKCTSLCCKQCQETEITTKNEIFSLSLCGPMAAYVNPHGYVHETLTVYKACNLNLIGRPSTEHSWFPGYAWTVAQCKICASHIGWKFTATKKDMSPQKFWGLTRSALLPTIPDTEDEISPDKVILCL
CRBN/DDB1, sequence (Q16531 whole entry partner, species assumed): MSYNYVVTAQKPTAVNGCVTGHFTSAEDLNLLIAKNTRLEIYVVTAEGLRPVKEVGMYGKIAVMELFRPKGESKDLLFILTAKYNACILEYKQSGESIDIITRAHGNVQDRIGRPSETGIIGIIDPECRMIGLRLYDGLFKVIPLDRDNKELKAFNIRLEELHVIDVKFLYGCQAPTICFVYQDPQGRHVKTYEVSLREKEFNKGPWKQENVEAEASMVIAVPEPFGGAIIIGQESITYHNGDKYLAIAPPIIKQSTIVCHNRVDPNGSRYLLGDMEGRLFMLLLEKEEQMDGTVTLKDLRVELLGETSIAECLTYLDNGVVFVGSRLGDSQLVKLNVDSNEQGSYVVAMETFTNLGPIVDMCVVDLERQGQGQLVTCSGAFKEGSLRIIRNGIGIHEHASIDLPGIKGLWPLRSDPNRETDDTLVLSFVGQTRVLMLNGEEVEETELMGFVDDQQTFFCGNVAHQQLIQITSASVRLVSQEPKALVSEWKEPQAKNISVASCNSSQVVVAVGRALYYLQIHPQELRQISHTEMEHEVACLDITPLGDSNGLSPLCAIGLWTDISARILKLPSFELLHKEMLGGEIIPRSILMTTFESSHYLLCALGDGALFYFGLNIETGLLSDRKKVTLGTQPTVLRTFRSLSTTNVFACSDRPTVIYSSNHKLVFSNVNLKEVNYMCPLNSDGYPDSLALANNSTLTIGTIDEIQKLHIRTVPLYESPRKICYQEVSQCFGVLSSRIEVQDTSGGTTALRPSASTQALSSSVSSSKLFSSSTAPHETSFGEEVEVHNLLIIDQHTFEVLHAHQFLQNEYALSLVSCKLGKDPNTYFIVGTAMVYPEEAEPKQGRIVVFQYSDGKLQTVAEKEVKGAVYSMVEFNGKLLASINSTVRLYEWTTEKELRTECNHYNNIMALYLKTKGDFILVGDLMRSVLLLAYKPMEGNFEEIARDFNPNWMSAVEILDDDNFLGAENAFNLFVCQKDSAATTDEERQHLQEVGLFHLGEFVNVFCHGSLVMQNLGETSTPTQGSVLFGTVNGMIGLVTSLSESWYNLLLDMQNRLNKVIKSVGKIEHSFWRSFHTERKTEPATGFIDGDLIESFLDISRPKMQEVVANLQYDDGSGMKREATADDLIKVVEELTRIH
Table 4. Inhibition Rate of Compounds on CRBN/DDB1 Binding
In general terms: Time-resolved FRET reads energy transfer from a long-lived donor to a nearby acceptor.

Another test has as its system MV-4-11 cells. In words: MV-4-11 cell proliferation inhibition (MTS assay). It is filed as cell-based. Conditions: Homo sapiens, MV4-11, 168 h, 7 days incubation, MTS, read-out: MV-411 (IC50, Inhibitory Activity of Compounds on MV-4-11 Cell Proliferation). As for the experimental part:
MV-4-11 cells were cultured in IMDM medium supplemented with 10% fetal bovine serum and collected. The cell concentration was diluted according to a 7-day incubation period, and 180 µL of cell suspension was added to each well of a 96-well plate, resulting in 2,000 cells per well. […] The test compounds were prepared from a 10 mM stock solution and serially diluted in a five-fold gradient, and 20 µL of the diluted compound solution was added to each compound-treated well (final DMSO concentration 0.2%). The cells were incubated in a 37 °C, 5% CO2 incubator for 7 days. After incubation, the reaction solution was prepared according to the MTS assay kit instructions (Promega, G5430), and 20 µL was added to each well. The plate was further incubated at 37 °C with 5% CO2 for 3-4 hours. The absorbance at 490 nm was measured using a microplate reader, and the absorbance at 690 nm was used as the background value. The final raw data were calculated as OD490 - OD690. […] The IC50 values for cell proliferation inhibition were determined using GraphPad Prism 5.0. Each experiment was repeated three times, and three parallel replicates were performed in each experiment to calculate the mean value and standard deviation.
Table 3. Inhibitory Activity of Compounds on MV-4-11 Cell Proliferation

The test system of a further test is Mino cells. In words: Mino cell proliferation inhibition (MTS assay). It is filed as cell-based. Conditions: Homo sapiens, 72 h, 3 days incubation, read-out: Mino (IC50, Inhibitory Activity of Compounds on Mino Cell Proliferation). As for the experimental part: The cell concentration was diluted according to a 3-day incubation period, and 90 µL of cell suspension was added to each well of a 96-well plate, resulting in 8,000 cells per well. […] The test compounds were prepared from a 10 mM stock solution and serially diluted in a five-fold gradient. Similarly, 10 µL of the diluted compound solution was added to each compound-treated well (final DMSO concentration 0.2%).
The cells were incubated in a 37 °C, 5% CO2 incubator for 3 days. After incubation, the reaction solution was prepared according to the MTS assay kit instructions (Promega, G5430), and 20 µL was added to each well. The plate was further incubated at 37 °C with 5% CO2 for 3-4 hours. The absorbance at 490 nm was measured using a microplate reader, and the absorbance at 690 nm was used as the background value. The final raw data were calculated as OD490 - OD690. […] The IC50 values for cell proliferation inhibition were determined using GraphPad Prism 5.0. Each experiment was repeated three times, and three parallel replicates were performed in each experiment to calculate the mean value and standard deviation.
Table 2. Inhibitory Activity of Compounds on Mino Cell Proliferation
For orientation: Tetrazolium dyes change colour on reduction, which living cells bring about.

The subject of a further test is MM.1S cells. In words: MM.1S cell proliferation inhibition (MTS assay). The format is cell-based. Conditions: Homo sapiens, MM1.S, 168 h, 7 days incubation, read-out: MM1.S (IC50, Inhibitory Activity of Compounds on MM.1S Cell Proliferation). The method, then: The cell concentration was diluted according to a 7-day incubation period, and 180 µL of cell suspension was added to each well of a 96-well plate, with 20,000 cells per well. […] The test compounds were prepared from a 10 mM stock solution and serially diluted in a 5-fold gradient, and 20 µL of the diluted solution was added to each compound-treated well (final DMSO concentration also 0.2%). The cells were incubated in a 37 °C, 5% CO2 incubator for 7 days. After incubation, the reaction solution was prepared according to the MTS assay kit instructions (Promega, G5430), and 20 µL was added to each well. The plate was incubated at 37 °C with 5% CO2 for 3-4 hours. The absorbance at 490 nm was measured using a microplate reader, and the absorbance at 690 nm was used as the background value. […] The IC50 values for cell proliferation inhibition were determined using GraphPad Prism 5.0. Each experiment was repeated three times, and three parallel replicates were performed in each experiment to calculate the mean value and standard deviation.
Inhibitory Activity of Compounds on MM.1S Cell Proliferation

As to `O=C1CCC(n2[nH]c3c(OCc4ccc(CN5CCN(c6ccc(F)cc6)CC5)cc4)cc(F)cc3c2=O)C(=O)N1` (centres unmarked) [Compound D19, 3-(5-Fluoro-7-((4-((4-(4-fluorophenyl)piperazin-1-yl)methyl)benzyl)oxy)-3-oxo-1,3-dihydro-2H-indazol-2-yl)piperidine-2,6-dione], on CRBN/DDB1, the inhibition at 1 µM was more than 90%. Moreover, the IC50 with MV-4-11 cells, in the test with Mino cells and with MM.1S cells was less than 200 nM in each case.

Turning to `Cc1ccc(N2CCN(C(=O)c3ccc(COc4cccc5c(=O)n(C6CCC(=O)NC6=O)[nH]c45)cc3)CC2)c(F)c1` (centres unmarked) [Compound D5, 3-(7-((4-(4-(2-Fluoro-4-methylphenyl)piperazine-1-carbonyl)benzyl)oxy)-3-oxo-1,3-dihydro-2H-indazol-2-yl)piperidine-2,6-dione], on CRBN/DDB1, the inhibition at 1 µM was in the range of 50 to 90%. Moreover, the values for the IC50 with MV-4-11 cells, in the test with Mino cells and in the test on MM.1S cells were 1000 to 20000 nM, less than 200 nM and less than 200 nM, respectively.

For the molecule `O=C1CCC(n2[nH]c3c(OCc4ccc(CN5CCN(c6ccc(Cl)cc6)CC5)cc4)cccc3c2=O)C(=O)N1` (centres unmarked) [Compound D9, 3-(7-((4-((4-(4-chlorophenyl)piperazin-1-yl)methyl)benzyl)oxy)-3-oxo-1,3-dihydro-2H-indazol-2-yl)piperidine-2,6-dione], the inhibition at 1 µM on CRBN/DDB1 is more than 90%. The IC50 in the test on MV-4-11 cells, with Mino cells and in the test with MM.1S cells was less than 200 nM in each case.

With `N#Cc1ccc(N2CCN(C(=O)c3ccc(COc4cccc5c(=O)n(C6CCC(=O)NC6=O)[nH]c45)cc3)CC2)c(F)c1` (centres unmarked) [Compound D4], at CRBN/DDB1, the inhibition at 1 µM is more than 90%. For the same molecule, the IC50 with MV-4-11 cells was 1000 to 20000 nM; in the test with Mino cells, less than 200 nM; in the test on MM.1S cells it was less than 200 nM.

Take `O=C1CCC(n2[nH]c3c(OCc4ccc(CN5CCN(c6ccc(F)cc6F)CC5)cc4)cccc3c2=O)C(=O)N1` (centres unmarked) [Compound D7, 3-(7-((4-((4-(2,4-difluorophenyl)piperazin-1-yl)methyl)benzyl)oxy)-3-oxo-1,3-dihydro-2H-indazol-2-yl)piperidine-2,6-dione]: on CRBN/DDB1, the inhibition at 1 µM is more than 90%. The IC50 in the test with MV-4-11 cells, in the test with Mino cells and in the test on MM.1S cells was less than 200 nM in each case.

For `O=C1CC[C@H](n2[nH]c3c(OCc4ccc(CN5CCOCC5)cc4)cccc3c2=O)C(=O)N1` [Compound D1, (S)-3-(7-((4-(Morpholinomethyl)benzyl)oxy)-3-oxo-1,3-dihydro-2H-indazol-2-yl)piperidine-2,6-dione], at CRBN/DDB1, the inhibition at 1 µM was in the range of 50 to 90%. For the same molecule, the IC50 in the test with MV-4-11 cells was more than 20000 nM; in the test on Mino cells it was 1000 to 10000 nM; in the test with MM.1S cells it was less than 200 nM.

Regarding `O=C1CCC(n2[nH]c3cc(C(=O)NCc4ccccc4)ccc3c2=O)C(=O)N1` (centres unmarked) [Compound D46, N-Benzyl-2-(2,6-dioxopiperidin-3-yl)-3-oxo-2,3-dihydro-1H-indazol-6-carboxamide], the inhibition at 1 µM at CRBN/DDB1 is less than 50%. Moreover, the IC50 is more than 20000 nM in the test on MV-4-11 cells, more than 10000 nM in the test with Mino cells and more than 10000 nM with MM.1S cells.

Turning to `N#Cc1ccc(N2CCN(Cc3ccc(COc4cccc5c(=O)n([C@H]6CCC(=O)NC6=O)[nH]c45)cc3)CC2)c(F)c1` [Compound D2, (S)-4-(4-(4-(((2-(2,6-dioxopiperidin-3-yl)-3-oxo-2,3-dihydro-1H-indazol-7-yl)oxy)methyl)benzyl)piperazin-1-yl)-3-fluorobenzonitrile], the inhibition at 1 µM at CRBN/DDB1 is more than 90%. Besides, the IC50 in the test on MV-4-11 cells, in the test on Mino cells and in the test on MM.1S cells was less than 200 nM in each case.

On to `O=C1CC[C@H](n2[nH]c3c(OCc4cnc(-c5ccc(Cl)cc5)o4)cccc3c2=O)C(=O)N1` [Compound D27, (S)-3-(7-((2-(4-chlorophenyl)oxazol-5-yl)methoxy)-3-oxo-1,3-dihydro-2H-indazol-2-yl)piperidine-2,6-dione], for which the IC50 is more than 20000 nM in the test on MV-4-11 cells, more than 10000 nM in the test with Mino cells and 1000 to 10000 nM with MM.1S cells.

For `O=C1CCC(n2[nH]c3cc(C(=O)N[C@@H]4CCOc5ccc(Cl)cc54)ccc3c2=O)C(=O)N1` (stereo partly drawn) [Compound D41, N-((R)-6-chlorochroman-4-yl)-2-(2,6-dioxopiperidin-3-yl)-3-oxo-2,3-dihydro-1H-indazole-6-carboxamide], the IC50 with MV-4-11 cells is more than 20000 nM; in the test on Mino cells it was more than 10000 nM; in the test with MM.1S cells it was more than 10000 nM.

Regarding `O=C1CCC(n2[nH]c3c(OCc4ccc(CN5CC(N6CCOCC6)C5)cc4)cc(F)cc3c2=O)C(=O)N1` (centres unmarked) [Compound D20, 3-(5-Fluoro-7-((4-((3-morpholinoazetidin-1-yl)methyl)benzyl)oxy)-3-oxo-1,3-dihydro-2H-indazol-2-yl)piperidine-2,6-dione], the figures for the IC50 in the test on MV-4-11 cells, with Mino cells and in the test on MM.1S cells were 200 to 1000 nM, 200 to 1000 nM and less than 200 nM, respectively.

For the molecule `COc1ccc(-c2ncc(COc3cccc4c(=O)n(C5CCC(=O)NC5=O)[nH]c34)o2)cc1` (centres unmarked) [Compound D28, 3-(7-((2-(4-methoxyphenyl)oxazol-5-yl)methoxy)-3-oxo-1,3-dihydro-2H-indazol-2-yl)piperidine-2,6-dione], the IC50 is more than 20000 nM with MV-4-11 cells, more than 10000 nM in the test with Mino cells and 1000 to 10000 nM in the test on MM.1S cells.

For `C[C@H](NC(=O)c1ccc2c(=O)n(C3CCC(=O)NC3=O)[nH]c2c1)c1ccc(Cl)cc1` (stereo partly drawn) [Compound D30, N-((S)-1-(4-chlorophenyl)ethyl)-2-(2,6-dioxopiperidin-3-yl)-3-oxo-2,3-dihydro-1H-indazole-6-carboxamide], the IC50 in the test with MV-4-11 cells was 1000 to 20000 nM; with Mino cells, 1000 to 10000 nM; in the test on MM.1S cells it was more than 10000 nM.

Take `C[C@@H](NC(=O)c1ccc2c(=O)n(C3CCC(=O)NC3=O)[nH]c2c1)c1ccc(Cl)cc1` (stereo partly drawn) [Compound D34, N-((R)-1-(4-chlorophenyl)ethyl)-2-(2,6-dioxopiperidin-3-yl)-3-oxo-2,3-dihydro-1H-indazole-6-carboxamide]: the IC50 in the test on MV-4-11 cells was more than 20000 nM; with Mino cells, more than 10000 nM; in the test with MM.1S cells it was more than 10000 nM.

In the case of `C[C@H](NC(=O)c1ccc2c(=O)n(C3CCC(=O)NC3=O)[nH]c2c1)c1cccc(Cl)c1` (stereo partly drawn) [Compound D39, N-((S)-1-(3-chlorophenyl)ethyl)-2-(2,6-dioxopiperidin-3-yl)-3-oxo-2,3-dihydro-1H-indazole-6-carboxamide], the figures for the IC50 in the test with MV-4-11 cells, in the test on Mino cells and in the test on MM.1S cells were more than 20000 nM, more than 10000 nM and more than 10000 nM, respectively.

On to `N#Cc1ccc(N2CCC(Sc3ccc(COc4cccc5c(=O)n([C@H]6CCC(=O)NC6=O)[nH]c45)cn3)CC2)c(F)c1` [Compound D3, (S)-4-(4-((5-(((2-(2,6-dioxopiperidin-3-yl)-3-oxo-2,3-dihydro-1H-indazol-7-yl)oxy)methyl)pyridin-2-yl)thio)piperidin-1-yl)-3-fluorobenzonitrile], for which the IC50 in the test on MV-4-11 cells was 200 to 1000 nM; with Mino cells, less than 200 nM; with MM.1S cells, less than 200 nM.
